# Laboratory results from PubChem BioAssay AID1259407 (Chemical Carcinogenesis Research Information System (CCRIS), 2018).
# The source made the active and inactive calls. How the calls were made is not given here.
# Test system: CCRIS mutagenicity, Ames/micronucleus/aberration tests
# Experiment: CCRIS mutagenicity studies
smiles,measurement,setting,value
CNC(=O)ON=CC(C)(C)SC,mutagenic call,"End Point: IN VIVO CHROMOSOMAL ABERRATIONS, Test System: BONE MARROW CELLS, Species: RAT, Strain/Sex: MALE, Route: ORAL (GAVAGE)",active; positive (structural and ploidy changes)
same,mutagenic call,"End Point: IN VIVO MICRONUCLEUS, Test System: BONE MARROW POLYCHROMATIC ERYTHROCYTES, Species: RAT, Strain/Sex: MALE, Route: ORAL (GAVAGE)",active; positive
same,mutagenic call,"Test System: AMES SALMONELLA TYPHIMURIUM, Strain/Indicator: TA97, Metabolic Activation: HAMSTER, LIVER, S-9, AROCLOR 1254 (10 OR 30%), Method: PREINCUBATION",inactive; negative
same,mutagenic call,"Test System: AMES SALMONELLA TYPHIMURIUM, Strain/Indicator: TA97, Metabolic Activation: NONE, Method: PREINCUBATION",inactive; negative
same,mutagenic call,"Test System: AMES SALMONELLA TYPHIMURIUM, Strain/Indicator: TA97, Metabolic Activation: RAT, LIVER, S-9, AROCLOR 1254 (10 OR 30%), Method: PREINCUBATION",inactive; negative
same,mutagenic call,"Test System: AMES SALMONELLA TYPHIMURIUM, Strain/Indicator: TA98, Metabolic Activation: HAMSTER, LIVER, S-9, AROCLOR 1254 (10 OR 30%), Method: PREINCUBATION",inactive; negative
same,mutagenic call,"Test System: AMES SALMONELLA TYPHIMURIUM, Strain/Indicator: TA98, Metabolic Activation: NONE, Method: PREINCUBATION",inactive; negative
same,mutagenic call,"Test System: AMES SALMONELLA TYPHIMURIUM, Strain/Indicator: TA98, Metabolic Activation: RAT, LIVER, S-9, AROCLOR 1254 (10 OR 30%), Method: PREINCUBATION",inactive; negative
same,mutagenic call,"Test System: AMES SALMONELLA TYPHIMURIUM, Strain/Indicator: TA100, Metabolic Activation: HAMSTER, LIVER, S-9, AROCLOR 1254 (10 OR 30%), Method: PREINCUBATION",inactive; negative
same,mutagenic call,"Test System: AMES SALMONELLA TYPHIMURIUM, Strain/Indicator: TA100, Metabolic Activation: NONE, Method: PREINCUBATION",inactive; negative
same,mutagenic call,"Test System: AMES SALMONELLA TYPHIMURIUM, Strain/Indicator: TA100, Metabolic Activation: RAT, LIVER, S-9, AROCLOR 1254 (10 OR 30%), Method: PREINCUBATION",inactive; negative
same,mutagenic call,"Test System: AMES SALMONELLA TYPHIMURIUM, Strain/Indicator: TA1535, Metabolic Activation: HAMSTER, LIVER, S-9, AROCLOR 1254 (10 OR 30%), Method: PREINCUBATION",inactive; negative
same,mutagenic call,"Test System: AMES SALMONELLA TYPHIMURIUM, Strain/Indicator: TA1535, Metabolic Activation: NONE, Method: PREINCUBATION",inactive; negative
same,mutagenic call,"Test System: AMES SALMONELLA TYPHIMURIUM, Strain/Indicator: TA1535, Metabolic Activation: RAT, LIVER, S-9, AROCLOR 1254 (10 OR 30%), Method: PREINCUBATION",inactive; negative
same,mutagenic call,"Test System: AMES SALMONELLA TYPHIMURIUM, Strain/Indicator: TA1537, Metabolic Activation: HAMSTER, LIVER, S-9, AROCLOR 1254 (10 OR 30%), Method: PREINCUBATION",inactive; negative
same,mutagenic call,"Test System: AMES SALMONELLA TYPHIMURIUM, Strain/Indicator: TA1537, Metabolic Activation: NONE, Method: PREINCUBATION",inactive; negative
same,mutagenic call,"Test System: AMES SALMONELLA TYPHIMURIUM, Strain/Indicator: TA1537, Metabolic Activation: RAT, LIVER, S-9, AROCLOR 1254 (10 OR 30%), Method: PREINCUBATION",inactive; negative
same,mutagenic call,"Test System: E. COLI, Strain/Indicator: WP2 UVRA, Metabolic Activation: HAMSTER, LIVER, S-9, AROCLOR 1254, Method: STANDARD PLATE",inactive; negative
same,mutagenic call,"Test System: E. COLI, Strain/Indicator: WP2 UVRA, Metabolic Activation: HAMSTER, LIVER, S-9, Method: STANDARD PLATE",inactive; negative
same,mutagenic call,"Test System: E. COLI, Strain/Indicator: WP2 UVRA, Metabolic Activation: MOUSE, LIVER, S-9, AROCLOR 1254, Method: STANDARD PLATE",inactive; negative
same,mutagenic call,"Test System: E. COLI, Strain/Indicator: WP2 UVRA, Metabolic Activation: MOUSE, LIVER, S-9, Method: STANDARD PLATE",inactive; negative
same,mutagenic call,"Test System: E. COLI, Strain/Indicator: WP2 UVRA, Metabolic Activation: NONE, Method: STANDARD PLATE",inactive; negative
same,mutagenic call,"Test System: E. COLI, Strain/Indicator: WP2 UVRA, Metabolic Activation: RAT, LIVER, S-9, AROCLOR 1254, Method: STANDARD PLATE",inactive; negative
same,mutagenic call,"Test System: E. COLI, Strain/Indicator: WP2 UVRA, Metabolic Activation: RAT, LIVER, S-9, Method: STANDARD PLATE",inactive; negative
same,mutagenic call,"Test System: MOUSE LYMPHOMA, Strain/Indicator: L5178Y (TK+/TK-), Metabolic Activation: NONE, Method: SUSPENSION/PLATE",active; positive
same,mutagenic call,"Test System: MOUSE LYMPHOMA, Strain/Indicator: L5178Y (TK+/TK-), Metabolic Activation: RAT, LIVER, S-9, AROCLOR 1254, Method: SUSPENSION/PLATE",active; positive
same,mutagenic call,"Test System: MOUSE LYMPHOMA, Strain/Indicator: L5178Y (TK+/TK-), Metabolic Activation: RAT, LIVER, S-9, Method: SUSPENSION/PLATE",active; positive
CC1OC(OC2CC(O)(CO)Cc3c(O)c4c(c(O)c32)C(=O)c2ccccc2C4=O)C(I)C(O)C1O (stereo unspecified),mutagenic call,"Test System: AMES SALMONELLA TYPHIMURIUM, Strain/Indicator: TA97A, Metabolic Activation: NONE, Method: STANDARD PLATE",inactive; negative
same,mutagenic call,"Test System: AMES SALMONELLA TYPHIMURIUM, Strain/Indicator: TA97A, Metabolic Activation: RAT, LIVER, S-9, AROCLOR 1254, Method: STANDARD PLATE",inactive; negative
same,mutagenic call,"Test System: AMES SALMONELLA TYPHIMURIUM, Strain/Indicator: TA98, Metabolic Activation: NONE, Method: STANDARD PLATE",inactive; negative
same,mutagenic call,"Test System: AMES SALMONELLA TYPHIMURIUM, Strain/Indicator: TA98, Metabolic Activation: RAT, LIVER, S-9, AROCLOR 1254, Method: STANDARD PLATE",inactive; negative
same,mutagenic call,"Test System: AMES SALMONELLA TYPHIMURIUM, Strain/Indicator: TA100, Metabolic Activation: NONE, Method: STANDARD PLATE",inactive; negative
same,mutagenic call,"Test System: AMES SALMONELLA TYPHIMURIUM, Strain/Indicator: TA100, Metabolic Activation: RAT, LIVER, S-9, AROCLOR 1254, Method: STANDARD PLATE",inactive; negative
same,mutagenic call,"Test System: AMES SALMONELLA TYPHIMURIUM, Strain/Indicator: TA102, Metabolic Activation: NONE, Method: STANDARD PLATE",active; positive
same,mutagenic call,"Test System: AMES SALMONELLA TYPHIMURIUM, Strain/Indicator: TA102, Metabolic Activation: RAT, LIVER, S-9, AROCLOR 1254, Method: STANDARD PLATE",inactive; negative
CNC(=O)Oc1cccc2c1OC(C)(C)C2O (stereo unspecified),mutagenic call,"End Point: IN VIVO MICRONUCLEUS, Test System: BONE MARROW POLYCHROMATIC ERYTHROCYTES, Species: MOUSE, Strain/Sex: KM/MALE, FEMALE, Route: IP INJECTION",active; positive
